Assay results taken from paper PMC8704432, “Isolation, Structure Determination of Sesquiterpenes from Neurolaena lobata and Their Antiproliferative, Cell Cycle Arrest-Inducing and Anti-Invasive Properties against Human Cervical Tumor Cells” (Pharmaceutics, 2021).
Read-outs that look alike come from different tables or passages of the source.

Tests used:
[1] = test system: C33A (HPV negative) human cervical cell line; test: Antiproliferative MTT assay, C33A; format: cell-based; conditions: for inhibition at 10 µM / inhibition at 30 µM: read-out: Growth Inhibition Values (%) ± SEM
Protocol: (§1) Antiproliferative effect of the isolated compounds were determined in vitro using SiHa (HPV 16+), HeLa (HPV 18+), C33A (HPV negative) human cervical cell lines, NIH-3T3 mouse embryonic and MRC-5 human fibroblast cells by means of MTT ([3-(4,5-dimethylthiazol-2-yl)-2,5-diphenyltetrazolium bromide]) assay. Briefly, a limited number of human cancer cells (5000/well for SiHa and HeLa cells, 10,000/well in case of C33A cells) were seeded onto a 96-well microplate and became attached to the bottom of the well overnight. On the second day of the procedure, the test substances were added in two concentrations (10.0 and 30.0 µM) in order to obtain preliminary data and then the compounds were applied in serial dilution (applied final concentrations were: 0.1, 0.3, 1.0, 3.0, 10.0, 30.0 µM). Further details of the experiment were described in ref. [30]. All in vitro experiments were carried out on two 96-well dishes with at least five parallel wells [31].

MRC-5 (human fibroblast) = test: Antiproliferative MTT assay, MRC-5; format: cell-based
Protocol: as §1

[2] = test system: SiHa (HPV 16+) human cervical cell line; test: Antiproliferative MTT assay, SiHa; format: cell-based; conditions: for IC50: read-out: Calculated IC50 Values (μM) [95% CI]; for inhibition at 10 µM / inhibition at 30 µM: read-out: Growth Inhibition Values (%) ± SEM
Protocol: as §1

[3] = test system: HeLa (HPV 18+) human cervical cell line; test: Antiproliferative MTT assay, HeLa; format: cell-based; conditions: for IC50: read-out: Calculated IC50 Values (μM) [95% CI]; for inhibition at 10 µM / inhibition at 30 µM: read-out: Growth Inhibition Values (%) ± SEM
Protocol: as §1

[4] = test system: NIH/3T3 (mouse embryonic fibroblast); test: Antiproliferative MTT assay, NIH/3T3; format: cell-based
Protocol: as §1

SiHa cells [5] = test: Wound healing assay; format: cell-based, human
Protocol: In order to assess antimetastatic activity of the tested compound, wound healing assay was performed. The assay was done with specific wound healing assay chambers (Ibidi GmbH, Gräfelfing, Germany). SiHa cells were collected and 35,000 cells were seeded into both chambers of the insert. Cells were let to be attached to the plate surface during an overnight incubation at 37 °C in 5% CO2 atmosphere and then the inserts were removed. Cell debris was removed by a washing step with PBS. Test compounds were added to the wells in increasing concentrations in 2% FBS containing medium for 24 and 48 h. Migration of the cells into the wound site was visualized by phase-contrast inverted microscope (Axiovert 40, Zeiss, Thornwood, NY, USA). Images were taken with CCD camera at definite intervals and the migration of the cells was calculated as the ratio of wound closure by ImageJ software.

SiHa cells [6] = test: Cell cycle analysis by flow cytometry; format: cell-based, human; conditions: 48 or 72 h treatment
Protocol: Cell cycle analysis was performed as described in [32, 33].

[7] = test system: COLO 320 human colorectal cancer cells; set-up: method as in PMID 8657743; conditions: COLO 320 cells; read-out: IC50 (cytotoxicity); cited from earlier work
[8] = test system: GLC4 human small cell lung carcinoma; set-up: method as in PMID 8657743; conditions: GLC4 cells; read-out: IC50 (cytotoxicity); cited from earlier work
[9] = MRC-5, MTT, read-out: Calculated IC50 Values (μM) [95% CI]
[10] = NIH/3T3, MTT, read-out: Calculated IC50 Values (μM) [95% CI]
[11] = Homo sapiens, C-33-A, read-out: Calculated IC50 Values (μM) [95% CI], C33A, MTT
[12] = Homo sapiens, MRC5, MRC-5, MTT, read-out: Calculated IC50 Values (μM) [95% CI]
[13] = Homo sapiens, MRC5, MRC-5, 10 μM, MTT, read-out: Growth Inhibition Values (%) ± SEM
[14] = Homo sapiens, MRC5, MRC-5, 30 μM, MTT, read-out: Growth Inhibition Values (%) ± SEM
[15] = Mus musculus, NIH3T3, NIH/3T3, MTT, read-out: Calculated IC50 Values (μM) [95% CI]
[16] = Mus musculus, NIH3T3, NIH/3T3, 10 μM, MTT, read-out: Growth Inhibition Values (%) ± SEM
[17] = Mus musculus, NIH3T3, NIH/3T3, 30 μM, MTT, read-out: Growth Inhibition Values (%) ± SEM
[18] = read-out: Calculated IC50 Values (μM) [95% CI], C33A, MTT
[19] = Homo sapiens, MRC5, read-out: Growth Inhibition Values (%) ± SEM
[20] = Mus musculus, NIH3T3, read-out: Growth Inhibition Values (%) ± SEM

SMILES | IC50 [1, 11] [µM] | inhibition at 10 µM ([1]; Homo sapiens, C-33-A) [%] | inhibition at 30 µM ([1]; Homo sapiens, C-33-A) [%] | inhibition at 10 µM ([2]; Homo sapiens, 10 μM) [%] | inhibition at 30 µM ([2]; Homo sapiens, 30 μM) [%] | IC50 ([2]; Homo sapiens) [µM] | inhibition at 10 µM ([3]; Homo sapiens, 10 μM) [%] | inhibition at 30 µM ([3]; Homo sapiens, 30 μM) [%] | IC50 ([3]; Homo sapiens) [µM] | other results
N.N.[Cl][Pt][Cl] [Cispl., cisplatin, reference compound] |  |  |  |  |  |  |  |  |  | Growth Inhibition Values (%) ± SEM ([1]; C33A, 10 μM, MTT): 77.17 ± 1.21%; Growth Inhibition Values (%) ± SEM ([1]; C33A, 30 μM, MTT): 97.50 ± 0.13%; IC50 ([1]; C33A, MTT, read-out: Calculated IC50 Values (μM) [95% CI]): 5.85 µM; Growth Inhibition Values (%) ± SEM (MRC-5 (human fibroblast); MRC-5, 30 μM, MTT): 70.65 ± 1.34%; IC50 (MRC-5 (human fibroblast); [9]): 5.77 µM; Growth Inhibition Values (%) ± SEM ([2]; 10 μM): 60.98 ± 0.92%; Growth Inhibition Values (%) ± SEM ([2]; 30 μM): 88.95 ± 0.53%; IC50 [2]: 4.29 µM; Growth Inhibition Values (%) ± SEM ([3]; 10 μM): 32.23 ± 1.16%; Growth Inhibition Values (%) ± SEM ([3]; 30 μM): 93.70 ± 0.82%; IC50 [3]: 12.1 µM; Growth Inhibition Values (%) ± SEM ([4]; NIH/3T3, 10 μM, MTT): 73.88 ± 0.46%; Growth Inhibition Values (%) ± SEM ([4]; NIH/3T3, 30 μM, MTT): 97.10 ± 0.15%; IC50 [4, 10]: 5.5 µM
C=C1C(=O)O[C@@H]2C[C@@H](C)C3=CC(=O)[C@](C)(O3)[C@H](OC(=O)CC(C)C)[C@@H](O)[C@@H]12 [Compound 1, 8β-Hydroxy-9α-isovaleroyloxycalyculatolide] | 5.89 | 90 ± 2.54 | 91.79 ± 0.22 | 77.93 ± 0.56 | 92.1 ± 0.73 | 4.86 | 20.4 ± 0.62 | 81.8 ± 1.7 | 16.8 | 
COC[C@@H]1C(=O)O[C@@H]2C[C@@H](C)C3=CC(=O)[C@](C)(O3)[C@H](O)[C@@H](OC(=O)CC(C)C)[C@@H]12 [Compound 2, Lobatolide A] |  | < 20 | 36.6 ± 2.95 | < 20 | < 20 |  | < 20 | 21.6 ± 2.42 |  | 
C=C1C(=O)O[C@@H]2/C=C(/C)C3=CC(=O)[C@](C)(O3)[C@H](OC(=O)CC(C)C)[C@@H](O)[C@@H]12 [Compound 3, 8β-hydroxy-9α-isovaleroyloxyatripliciolide] | 6.82 | 79.2 ± 3.33 | 94.46 ± 0.21 | 60.6 ± 1.58 | 78.8 ± 1.23 | 7.81 | 91.42 ± 0.34 | 96.6 ± 1.17 | 4.76 | IC50 (MRC-5 (human fibroblast); [12]): 6.67 µM; inhibition at 10 µM (MRC-5 (human fibroblast); [13]): 88.1 ± 1.22%; inhibition at 30 µM (MRC-5 (human fibroblast); [14]): 97.58 ± 0.1%; IC50 [4, 15]: 4.12 µM; inhibition at 10 µM [4, 16]: 92.96 ± 0.56%; inhibition at 30 µM [4, 17]: 98.15 ± 0.13%
C=C1C(=O)O[C@@H]2/C=C(/C)C3=CC(=O)[C@](C)(O3)[C@H](OC(C)=O)[C@@H](OC(=O)CC(C)C)[C@@H]12 [Compound 4, Lobatin C] | 2.05 | 97.27 ± 0.18 | 97.19 ± 0.41 | 79.8 ± 1.47 | 94.62 ± 0.27 | 2.22 | 83.9 ± 1.8 | 90.1 ± 1.03 | 5.1 | 
COC[C@H]1C(=O)O[C@@H]2C[C@@H](C)/C=C\C(=O)[C@](C)(O)[C@H](OC(C)=O)[C@@H](OC(=O)CC(C)C)[C@H]21 [Compound 5, Lobatolide B] |  | 50.5 ± 3.49 | 90 ± 1.4 | < 20 | 65.5 ± 2.52 |  | < 20 | 63.9 ± 3.23 |  | 
C=C1C(=O)OC2C=C(C)C(OC(C)=O)CC3OC3(C)CC(OC(=O)CC(C)C)C12 (centres unmarked) [Compound 6, Lobatolide C] | 3.2 to 3.6 | 96.55 ± 0.22 | 96.72 ± 0.33 | 84.2 ± 2.32 | 84.8 ± 1.89 | 3.2 to 3.6 | < 20 | 91.9 ± 1.23 | 15.7 | IC50 [1, 18]: 3.53 µM; IC50 (MRC-5 (human fibroblast); [12]): > 11 µM; inhibition at 10 µM (MRC-5 (human fibroblast); [13]): < 20%; inhibition at 30 µM (MRC-5 (human fibroblast); [14]): 73 ± 1.64%; IC50 (MRC-5 (human fibroblast); [9]): 11.9 µM; IC50 [2]: 3.24 µM; Wound closure (SiHa cells [5]; 1.5 µM, 48 h (control 70%)): 47%; Wound closure (SiHa cells [5]; 3 µM, 24 h (control 30%)): 12%; Wound closure (SiHa cells [5]; 3 µM, 48 h (control 70%)): 18%; Cell cycle distribution (SiHa cells [6]): significant concentration-dependent accumulation of cells in the S phase; IC50 [4, 15]: > 11 µM; inhibition at 10 µM [4, 16]: 40.7 ± 2.92%; inhibition at 30 µM [4, 17]: 96.8 ± 0.25%; IC50 [4, 10]: 11.2 µM
C=C1C(=O)O[C@@H]2[C@@H](CC3=C4[C@@H](C[C@@H](C)/C=C\C(=O)[C@](C)(O)[C@H](OC(C)=O)[C@H]4OC(=O)CC(C)C)OC3=O)[C@@H](C)C3=CC(=O)[C@](C)(O3)[C@H](O)[C@@H](OC(=O)CC(C)C)[C@@H]12 [Compound 7, Lobatolide D] | 6.62 | 94.66 ± 0.19 | 95.18 ± 0.31 | 77.2 ± 1.04 | 93.5 ± 0.42 | 6.02 | 91.87 ± 0.72 | 96.44 ± 0.1 | 6 | IC50 (MRC-5 (human fibroblast); Homo sapiens, MRC5, read-out: Calculated IC50 Values (μM) [95% CI]): 15.4 µM; inhibition at 10 µM (MRC-5 (human fibroblast); [19]): < 20%; inhibition at 30 µM (MRC-5 (human fibroblast); [19]): 97.63 ± 0.27%; IC50 ([4]; Mus musculus, NIH3T3, read-out: Calculated IC50 Values (μM) [95% CI]): 5.68 µM; inhibition at 10 µM [4, 20]: 90.7 ± 1.2%; inhibition at 30 µM [4, 20]: 98.06 ± 0.19%
C=C1CC[C@@H](O)[C@]2(C)CC[C@@H](C(C)C)[C@H](O)[C@@H]12 [Compound 9, Volenol] |  | < 20 | 26.7 ± 2.73 | < 20 | 35.7 ± 1.29 |  | < 20 | 37.3 ± 2.65 |  | 
CC(C)[C@@H]1CC[C@@]2(C)C(=O)CCC(CO)=C[C@@H]12 [Compound 10, (+)-aphanamol I] |  | < 20 | < 20 | < 20 | < 20 |  | < 20 | 36.5 ± 1.55 |  | 
C=C1C(=O)O[C@@H]2/C=C(/C)C3=CC(=O)[C@](C)(O3)[C@H](O)[C@@H](OC(=O)CC(C)C)[C@@H]12 [Lobatin B] |  |  |  |  |  |  |  |  |  | IC50 [7]: 1.1 µM; IC50 [8]: 0.6 µM
C=C1C(=O)O[C@@H]2C[C@@H](C)/C=C\C(=O)[C@@](C)(O)[C@H](OC(C)=O)[C@@H](OC(=O)CC(C)C)[C@@H]12 [Neu B, neurolenin B, reference compound] |  | 98.29 ± 0.03 | 97.91 ± 0.15 | 88.73 ± 0.36 | 93.42 ± 0.33 | < 1.4 | 94 ± 0.59 | 94.81 ± 0.37 | < 1.4 | IC50 [1, 18]: < 1.4 µM; IC50 (MRC-5 (human fibroblast); [12]): 5.18 µM; inhibition at 10 µM (MRC-5 (human fibroblast); [13]): 94.26 ± 0.23%; inhibition at 30 µM (MRC-5 (human fibroblast); [14]): 97.46 ± 0.21%; IC50 [2]: 1.33 µM; IC50 [7]: 1.2 µM; IC50 [8]: 1.1 µM; IC50 [3]: 1.24 µM; IC50 [4, 15]: < 1.4 µM; inhibition at 10 µM [4, 16]: 98.11 ± 0.09%; inhibition at 30 µM [4, 17]: 98.02 ± 0.05%; IC50 [4, 10]: 1.31 µM
